The source made the active and inactive calls. No cut-off for these calls is given here.
Legend:
Liver microsomes = assay: Antioxidant activity in rat Liver microsome assessed as inhibition of Fe2+-cystine-induced lipid peroxidation at 10 uM; assay type: functional
WB-F344 = assay: Hepatoprotective activity against DL-galactosamine-induced cell damage in rat WB-F344 cells at 10 uM after 24 hrs by MTT assay; assay type: functional, cell-based
Bel-7402 = assay: Cytotoxicity against human Bel7402 cells at 10 uM after 96 hrs by MTT assay; assay type: functional, cell-based
MCF7 = assay: Cytotoxicity against human MCF7 cells at 10 uM after 96 hrs by MTT assay; assay type: functional, cell-based
KETR3 = assay: Cytotoxicity against human Ketr3 cells at 10 uM after 96 hrs by MTT assay; assay type: functional, cell-based
BGC-823 = assay: Cytotoxicity against human BGC823 cells at 10 uM after 96 hrs by MTT assay; assay type: functional, cell-based
[1] = system: Human immunodeficiency virus 1; assay: Antiviral activity against HIV1 NL4-3 infected in human 293T cells assessed as inhibition of viral replication at 10 uM after 48 hrs by luciferase reporter gene assay; assay type: functional, organism-based
[2] = system: Peritoneal macrophage cell; assay: Inhibition of LPS-induced nitric oxide production in C57BL/6J mouse peritoneal macrophages at 10 uM after 24 hrs by Griess reaction; assay type: functional
HCT-8 = assay: Cytotoxicity against human HCT8 cells at 10 uM after 96 hrs by MTT assay; assay type: functional, cell-based
A549 = assay: Cytotoxicity against human A549 cells at 10 uM after 96 hrs by MTT assay; assay type: functional, cell-based
PC-12 = assay: Neuroprotective activity against serum deprivation-induced toxicity in rat PC12 cells assessed as increase in cell viability at 10 uM after 48 hrs by MTT assay; assay type: functional

SMILES	inhibition (Liver microsomes)	Activity (WB-F344)	Activity (Bel-7402)	Activity (MCF7)	Activity (KETR3)	Activity (BGC-823)	inhibition [1]	inhibition at 10 µM [2] [%]	Activity (HCT-8)	Activity (A549)	Activity (PC-12) [%]
COc1cc(C(=O)[C@@H]2CO[C@H](c3cc(OC)c(O)c(OC)c3)[C@H]2CO)cc(OC)c1O	inactive	inactive	inactive	inactive	inactive	inactive	inactive	< 30	inactive	inactive	
COc1cc([C@H](O)[C@H](CO)Oc2c(OC)cc(-c3cc(=O)c4c(O)cc(O)cc4o3)cc2OC)ccc1O [SALCOLIN B]	inactive	inactive	inactive	inactive	inactive	inactive	inactive	71.7	inactive	inactive	97.6
COc1cc([C@@H]2Oc3c(OC)cc(/C=C/CO)cc3[C@H]2CO)cc(OC)c1OC	inactive	inactive	inactive	inactive	inactive	inactive	inactive	< 30	inactive	inactive	
COc1cc([C@@H](O)[C@H](CO)Oc2c(OC)cc(-c3cc(=O)c4c(O)cc(O)cc4o3)cc2OC)ccc1O	inactive	inactive	inactive	inactive	inactive	inactive	inactive	< 30	inactive	inactive	
COc1cc(-c2cc(=O)c3c(O)cc(O)cc3o2)cc(OC)c1O[C@@H](CO)[C@@H](O)c1ccc(O)cc1	inactive	inactive	inactive	inactive	inactive	inactive	inactive	84.2	inactive	inactive	107.2
COc1cc([C@@H](O)[C@H](CO)Oc2c(OC)cc([C@@H]3OC[C@@H]4[C@H]3CO[C@H]4c3cc(OC)c(O[C@@H](CO)[C@H](O)c4ccc(O)c(OC)c4)c(OC)c3)cc2OC)ccc1O	inactive	inactive	inactive	inactive	inactive	inactive	inactive	< 30	inactive	inactive	
COc1cc([C@H](O)[C@@H](CO)Oc2c(OC)cc([C@@H]3Oc4c(OC)cc(C=O)cc4[C@H]3CO)cc2OC)ccc1O	inactive	inactive	inactive	inactive	inactive	inactive	inactive	< 30	inactive	inactive	
COc1cc([C@H](O)[C@H](CO)Oc2c(OC)cc(O)cc2OC)ccc1O	inactive	inactive	inactive	inactive	inactive	inactive	inactive	< 30	inactive	inactive	
COc1cc([C@H](O)[C@H](CO)Oc2c(OC)cc(C(=O)O)cc2OC)ccc1O	inactive	inactive	inactive	inactive	inactive	inactive	inactive	< 30	inactive	inactive	
COc1cc(-c2cc(=O)c3c(O)cc(O)cc3o2)cc(OC)c1O[C@@H](CO)[C@H](O)c1ccc(O)cc1	inactive	inactive	inactive	inactive	inactive	inactive	inactive	< 30	inactive	inactive	80.7
COc1cc([C@H](O)[C@H](CO)Oc2c(OC)cc([C@@H]3OC[C@@H]4[C@H]3CO[C@H]4c3cc(OC)c(O[C@@H](CO)[C@@H](O)c4ccc(O)c(OC)c4)c(OC)c3)cc2OC)ccc1O	inactive	inactive	inactive	inactive	inactive	inactive	inactive	< 30	inactive	inactive	
COc1cc([C@@H]2OC[C@@H]3[C@H]2CO[C@H]3c2cc(OC)c(OC)c(OC)c2)cc(OC)c1O	inactive	inactive	inactive	inactive	inactive	inactive	inactive	< 30	inactive	inactive	
COc1cc2c(c(OC)c1O)[C@H]1c3c(cc(OC)c(O)c3OC)OC[C@@H](C2)[C@H]1CO	inactive	inactive	inactive	inactive	inactive	inactive	inactive	< 30	inactive	inactive	
C[C@@H]1C[C@H]2[C@@H]3CCC4=CC(=O)C=C[C@]4(C)[C@@]3(F)[C@@H](O)C[C@]2(C)[C@@]1(O)C(=O)CO [DEXAMETHASONE]								61.6			
COc1cc([C@@H]2O[C@@H](c3cc(OC)c(OC)c(OC)c3)[C@H](CO)[C@H]2CO)cc(OC)c1O	inactive	inactive	inactive	inactive	inactive	inactive	inactive	< 30	inactive	inactive	
